Measurements published in patent US20250263799A1, “METHODS OF TREATING CANCER USING REPLICATION STRESS MODULATORS” (The Institute of Cancer Research: Royal Cancer Hospital, priority 2022, published 2025).

Legend:
[1] = test system: SUM159 cells engineered with dox inducible expression of HORMAD1; assay: Colony formation (surviving fraction) with ART558 in SUM159 cells with dox inducible expression of HORMAD1; assay type: cell-based, human
Protocol: (§1) RPE1 (FIGS. 16-17, A) or SUM159 (FIGS. 16-17, B) cells engineered with dox inducible expression of HORMAD1 were seeded at colony forming density in the presence or absence of dox and treated with the indicated doses of ART558. Colonies were counted and surviving fractions for each condition were calculated.

[2] = test system: RPE1 cells engineered with dox inducible expression of HORMAD1; assay: Colony formation (surviving fraction) with ART558 in RPE1 cells with dox inducible expression of HORMAD1; assay type: cell-based, human
Protocol: as §1

[3] = test system: SUM159 cells with dox-inducible expression of HORMAD1; assay: LY2606368 sensitivity in SUM159 cells with dox-inducible HORMAD1 (FIG. 18D); assay type: cell-based, human; settings: +DOX vs -DOX
[4] = test system: Breast cancer cell lines characterized as HORMAD1 negative and positive; settings: data from depmap.org, FIG. 18C; cited from earlier work
[5] = test system: HORMAD1 negative RPE-1 cells engineered to have doxycycline inducible expression of HORMAD1; assay: Novobiocin sensitivity, 10 days, cell viability by cell titre glow; assay type: cell-based, human
Protocol: HORMAD1 negative RPE-1 cells engineered to have doxycycline inducible expression of HORMAD1 were then assessed for their sensitivity to the POLQ inhibitor Novobiocin. Cells were treated with the indicated doses of Novobiocin for 10 days and cell viability assessed by cell titre glow.

[6] = test system: SUM149 cells with dox-inducible expression of HORMAD1; assay: CHK1 inhibitor sensitivity, colony forming density, Cell Titer Glow, surviving fraction; assay type: cell-based, human; settings: FIGS. 18A, B and D

Cc1cccc(N(C)C(=O)[C@@H]2[C@H](O)CCN2c2nc(C)cc(C(F)(F)F)c2C#N)c1 [ART558]
sensitivity to inhibitor, HORMAD1 expressing vs uninduced controls ([1]; SUM159, +DOX vs uninduced): significantly increased sensitivity | cell viability (surviving fraction of colonies) ([1]; SUM159 cells expressing HORMAD1 (+DOX), 10 and 20 μM ART558): significant reduction in cell viability | sensitivity to inhibitor, +DOX vs -DOX ([2]; RPE1, dox-induced expression of HORMAD1, FIG. 16A): increases sensitivity | cell viability (surviving fraction of colonies) ([2]; RPE1 cells expressing HORMAD1 (+DOX), 5, 10, and 20 μM ART558): significant reduction in cell viability | cell viability (surviving fraction of colonies) ([2]; RPE1 cells in the absence of the inducer (-DOX), below 20 μM ART558): no reduction in cell viability

COc1cccc(OCCCN)c1-c1cc(Nc2cnc(C#N)cn2)n[nH]1 [LY2606368]
sensitivity to CHK1 inhibitor upon induction of HORMAD1 expression [3]: increased sensitivity | mean area under the curve (AUC), HORMAD1 positive vs HORMAD1 negative group [4]: lower mean AUC

CO[C@@H]1[C@@H](OC(N)=O)[C@@H](O)[C@H](Oc2ccc3c(O)c(NC(=O)c4ccc(O)c(CC=C(C)C)c4)c(=O)oc3c2C)OC1(C)C [Novobiocin]
sensitivity to inhibitor, HORMAD1 expressing vs uninduced controls ([5]; +DOX vs uninduced, difference dose-dependent): significantly increased sensitivity | colony survival ([5]; Novobiocin at concentrations above 50 μM, 10 days): significant and dose-dependent reduction in colony survival

Cn1cc(-c2[nH]c3cc(NC(=O)[C@H](N)C4CCCCC4)cc4c3c2C=NNC4=O)cn1 [PF47736]
sensitivity to CHK1 inhibitor, HORMAD1 expressing vs uninduced controls [6]: significantly increased sensitivity

C[C@H](CN(C)C)Oc1nc(Nc2cc3cccc(Cl)c3cn2)cnc1C#N [SAR020106]
sensitivity to CHK1 inhibitor, HORMAD1 expressing vs uninduced controls [6]: significantly increased sensitivity
